Where no end group is shown, it is not given here. [ ]: non-standard residue; d: D form. Lys(Me2) = CN(C)CCCC[C@H](N)C(=O)O
What was measured:
Assay in all cases: Histone peptide microarray
Assay type in all cases: binding, human
[1] = system: KDM5A (3); conditions: GST-tagged KDM5A (3)
Outline: (§1)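 GST-tagged PHD readers, 0.5 μM, probed on a microarray of 293 synthetic histone peptides carrying single or combinatorial PTMs (optimized Petell protocol). Signals are averaged over 4 replicates and expressed as relative binding.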

[2] = system: BAZ2B; conditions: GST-tagged BAZ2B
Outline: as §1

[3] = system: ING3; conditions: GST-tagged ING3
Outline: as §1

[4] = system: DPF2 (PPC2W2)
Outline: as §1

[5] = system: PHF2; conditions: GST-tagged PHF2
Outline: as §1

[6] = system: CHD5 (PCC)
Outline: as §1

[7] = system: BPTF (PB)
Outline: as §1

[8] = system: PHF21A; conditions: GST-tagged PHF21A
Outline: as §1

[9] = system: KDM5B (1); conditions: GST-tagged KDM5B (1)
Outline: as §1

[10] = system: MLL5; conditions: GST-tagged MLL5
Outline: as §1

[11] = system: AIRE (PP); conditions: GST-tagged AIRE (PP)
Outline: as §1

[12] = system: PHRF1 (RP); conditions: GST-tagged PHRF1 (RP)
Outline: as §1

[13] = system: KDM4C (TTP)
Outline: as §1

[14] = system: PHF13; conditions: GST-tagged PHF13
Outline: as §1

[15] = system: KDM7A; conditions: GST-tagged KDM7A
Outline: as §1

[16] = system: CHD5 (PPCC)
Outline: as §1

[17] = system: TAF3; conditions: GST-tagged TAF3
Outline: as §1

[18] = system: CHD4 (PPCC)
Outline: as §1

[19] = system: ING2; conditions: GST-tagged ING2
Outline: as §1

[20] = system: RAG2; conditions: GST-tagged RAG2
Outline: as §1

[21] = system: ING1; conditions: GST-tagged ING1
Outline: as §1

[22] = system: KDM5A (1); conditions: GST-tagged KDM5A (1)
Outline: as §1

[23] = system: PHF23; conditions: GST-tagged PHF23
Outline: as §1

[24] = system: MORC3 (CW)
Outline: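 GST-tagged PHD finger readers were expressed, purified and applied at 0.5 μM to a microarray of 293 synthetic histone peptides carrying single or combinatorial PTMs, using an optimized protocol. Binding signals are averages with standard deviation from 4 replicates.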

[25] = system: TRIM66 (PB)
Outline: as §1

[26] = system: ING4; conditions: GST-tagged ING4
Outline: as §1

[27] = system: ING5; conditions: GST-tagged ING5
Outline: as §1

[28] = system: KDM5B (3); conditions: GST-tagged KDM5B (3)
Outline: as §1

[29] = system: DIDO1; conditions: GST-tagged DIDO1
Outline: as §1

[30] = system: SP140L; conditions: GST-tagged SP140L
Outline: as §1

[31] = system: PHF8; conditions: GST-tagged PHF8
Outline: as §1

[32] = sheet "Array Heatmap", arrays performed twice, total replicate number n = 4
[33] = sheet Array Heatmap, each array performed twice, total n = 4

“H3K4A + K9me2 (1-15): H3 1-15 (ARTAQTAR[Lys(Me2)]STGGKA; UniProt P68431 2-16, looked up, variant K4A)” was tested, and the “Array Heatmap signal, KDM5A (3)” value [1, 32] was 0.6587, the “Array Heatmap signal, BAZ2B” value [2, 32] was 0.512 and the “Array Heatmap signal, ING3” value [3, 32] was 0.5843. For the same substance, the “Array Heatmap signal, DPF2 (PPC2W2)” value ([4]; sheet "Array Heatmap", GST-tagged DPF2 (PPC2W2), arrays performed twice, total replicate number n = 4) was 0.7164, the “Array Heatmap signal, PHF2” value [5, 32] was 0.6167 and the “Array Heatmap signal, CHD5 (PCC)” value ([6]; sheet "Array Heatmap", GST-tagged CHD5 (PCC), arrays performed twice, total replicate number n = 4) was 0.7736. For the same substance, the “Array Heatmap signal, BPTF (PB)” value ([7]; sheet "Array Heatmap", GST-tagged BPTF (PB), arrays performed twice, total replicate number n = 4) was 0.4333, the “Array Heatmap signal, PHF21A” value [8, 32] was 0.468 and the “Array Heatmap signal, KDM5B (1)” value [9, 32] was 0.7016. For the same substance, the “Array Heatmap signal, MLL5” value [10, 32] was 0.7648, the “Array Heatmap signal, AIRE (PP)” value [11, 32] was 0.5312 and the “Array Heatmap signal, PHRF1 (RP)” value [12, 32] was 0.5557. For the same substance, the “Array Heatmap signal, KDM4C (TTP)” value ([13]; sheet "Array Heatmap", GST-tagged KDM4C (TTP), arrays performed twice, total replicate number n = 4) was 0.6461, the “Array Heatmap signal, PHF13” value [14, 32] was 0.6939 and the “Array Heatmap signal, KDM7A” value [15, 32] was 0.6423. For the same substance, the “Array Heatmap signal, CHD5 (PPCC)” value ([16]; sheet "Array Heatmap", GST-tagged CHD5 (PPCC), arrays performed twice, total replicate number n = 4) was 0.6167, the “Array Heatmap signal, TAF3” value [17, 32] was 0.4571 and the “Array Heatmap signal, CHD4 (PPCC)” value ([18]; sheet "Array Heatmap", GST-tagged CHD4 (PPCC), arrays performed twice, total replicate number n = 4) was 0.6182. The “Array Heatmap signal, ING2” value [19, 32] was 0.695, the “Array Heatmap signal, RAG2” value [20, 32] was 0.4111 and the “Array Heatmap signal, ING1” value [21, 32] was 0.7124. The “Array Heatmap signal, KDM5A (1)” value [22, 32] was 0.5206, the “Array Heatmap signal, PHF23” value [23, 32] was 0.6377 and the “Array Heatmap signal, MORC3 (CW)” value ([24]; sheet "Array Heatmap", GST-tagged MORC3 (CW), arrays performed twice, total replicate number n = 4) was 0.5677. The “Array Heatmap signal, TRIM66 (PB)” value ([25]; sheet "Array Heatmap", GST-tagged TRIM66 (PB), arrays performed twice, total replicate number n = 4) was 0.6262, the “Array Heatmap signal, ING4” value [26, 32] was 0.5574 and the “Array Heatmap signal, ING5” value [27, 32] was 0.4518. The “Array Heatmap signal, KDM5B (3)” value [28, 32] was 0.59, the “Array Heatmap signal, DIDO1” value [29, 32] was 0.8787 and the “Array Heatmap signal, SP140L” value [30, 32] was 0.3864. For the same substance, the “Array Heatmap signal, PHF8” value [31, 32] was 0.5196.
With H3K4ac + K9ac + K14ac + K18ac: H3 1-20 the “Array Heatmap signal (histone peptide microarray)” value [1, 33] was 0.4281, the “Array Heatmap signal (histone peptide microarray)” value [2, 33] was 0.563 and the “Array Heatmap signal (histone peptide microarray)” value [3, 33] was 0.4699. For the same substance, the “Array Heatmap signal (histone peptide microarray)” value ([4]; GST-tagged DPF2 (PPC2W2 = Dual PHD + C2W2-type Zn-finger), sheet Array Heatmap, each array performed twice, total n = 4) was 0.6596, the “Array Heatmap signal (histone peptide microarray)” value [5, 33] was 0.6121 and the “Array Heatmap signal (histone peptide microarray)” value ([6]; GST-tagged CHD5 (PCC = PHD + Dual Chromodomain), sheet Array Heatmap, each array performed twice, total n = 4) was 0.7123. For the same substance, the “Array Heatmap signal (histone peptide microarray)” value ([7]; GST-tagged BPTF (PB = PHD + Bromodomain), sheet Array Heatmap, each array performed twice, total n = 4) was 0.3593, the “Array Heatmap signal (histone peptide microarray)” value [8, 33] was 0.4272 and the “Array Heatmap signal (histone peptide microarray)” value [9, 33] was 0.573. The “Array Heatmap signal (histone peptide microarray)” value [10, 33] was 0.5536, the “Array Heatmap signal (histone peptide microarray)” value [11, 33] was 0.3782 and the “Array Heatmap signal (histone peptide microarray)” value [12, 33] was 0.4629. For the same substance, the “Array Heatmap signal (histone peptide microarray)” value ([13]; GST-tagged KDM4C (TTP = Tandem Tudor domain + PHD), sheet Array Heatmap, each array performed twice, total n = 4) was 0.4292, the “Array Heatmap signal (histone peptide microarray)” value [14, 33] was 0.5706 and the “Array Heatmap signal (histone peptide microarray)” value [15, 33] was 0.3021. For the same substance, the “Array Heatmap signal (histone peptide microarray)” value ([16]; GST-tagged CHD5 (PPCC = Dual PHD + Dual Chromodomain), sheet Array Heatmap, each array performed twice, total n = 4) was 0.5084, the “Array Heatmap signal (histone peptide microarray)” value [17, 33] was 0.2581 and the “Array Heatmap signal (histone peptide microarray)” value ([18]; GST-tagged CHD4 (PPCC = Dual PHD + Dual Chromodomain), sheet Array Heatmap, each array performed twice, total n = 4) was 0.5829. For the same substance, the “Array Heatmap signal (histone peptide microarray)” value [19, 33] was 0.6105, the “Array Heatmap signal (histone peptide microarray)” value [20, 33] was 0.2412 and the “Array Heatmap signal (histone peptide microarray)” value [21, 33] was 0.5598. The “Array Heatmap signal (histone peptide microarray)” value [22, 33] was 0.4231, the “Array Heatmap signal (histone peptide microarray)” value [23, 33] was 0.5552 and the “Array Heatmap signal (histone peptide microarray)” value ([24]; GST-tagged MORC3 (CW = CW-type Zn-finger), sheet Array Heatmap, each array performed twice, total n = 4) was 0.3581. The “Array Heatmap signal (histone peptide microarray)” value ([25]; GST-tagged TRIM66 (PB = PHD + Bromodomain), sheet Array Heatmap, each array performed twice, total n = 4) was 0.6561, the “Array Heatmap signal (histone peptide microarray)” value [26, 33] was 0.4318 and the “Array Heatmap signal (histone peptide microarray)” value [27, 33] was 0.3295. The “Array Heatmap signal (histone peptide microarray)” value [28, 33] was 0.4694, the “Array Heatmap signal (histone peptide microarray)” value [29, 33] was 0.7084 and the “Array Heatmap signal (histone peptide microarray)” value [30, 33] was 0.3096. The “Array Heatmap signal (histone peptide microarray)” value [31, 33] was 0.3207.

— paper PMC6979384, “Characterization of the plant homeodomain (PHD) reader family for their histone tail interactions” (Epigenetics & Chromatin, 2020)
